Assay results as given in patent publication US10793563B2, “GCN2 inhibitors and uses thereof” (Merck Patent GmbH, priority 2018, dated 2020).
pIC50, pKi: −log10 of the molar value.

Columns and labels:
[1] = molecular target: intracellular GCN2 (phosphorylation of the GCN2 substrate eIF2α) (Homo sapiens (Human), UniProt Q9P2K8); assay: GCN2 Cellular Inhibition Assay (AlphaScreen SureFire P-eIF2α Ser51, borrelidin-treated U2OS cells); type: cell-based; conditions: 10 μM borrelidin, 1 h, phosphorylated eIF2α Ser51, read-out: GCN2 Biomarker (IC50)
intracellular GCN2 (phosphorylation of the GCN2 substrate eIF2α), sequence (Q9P2K8 whole entry): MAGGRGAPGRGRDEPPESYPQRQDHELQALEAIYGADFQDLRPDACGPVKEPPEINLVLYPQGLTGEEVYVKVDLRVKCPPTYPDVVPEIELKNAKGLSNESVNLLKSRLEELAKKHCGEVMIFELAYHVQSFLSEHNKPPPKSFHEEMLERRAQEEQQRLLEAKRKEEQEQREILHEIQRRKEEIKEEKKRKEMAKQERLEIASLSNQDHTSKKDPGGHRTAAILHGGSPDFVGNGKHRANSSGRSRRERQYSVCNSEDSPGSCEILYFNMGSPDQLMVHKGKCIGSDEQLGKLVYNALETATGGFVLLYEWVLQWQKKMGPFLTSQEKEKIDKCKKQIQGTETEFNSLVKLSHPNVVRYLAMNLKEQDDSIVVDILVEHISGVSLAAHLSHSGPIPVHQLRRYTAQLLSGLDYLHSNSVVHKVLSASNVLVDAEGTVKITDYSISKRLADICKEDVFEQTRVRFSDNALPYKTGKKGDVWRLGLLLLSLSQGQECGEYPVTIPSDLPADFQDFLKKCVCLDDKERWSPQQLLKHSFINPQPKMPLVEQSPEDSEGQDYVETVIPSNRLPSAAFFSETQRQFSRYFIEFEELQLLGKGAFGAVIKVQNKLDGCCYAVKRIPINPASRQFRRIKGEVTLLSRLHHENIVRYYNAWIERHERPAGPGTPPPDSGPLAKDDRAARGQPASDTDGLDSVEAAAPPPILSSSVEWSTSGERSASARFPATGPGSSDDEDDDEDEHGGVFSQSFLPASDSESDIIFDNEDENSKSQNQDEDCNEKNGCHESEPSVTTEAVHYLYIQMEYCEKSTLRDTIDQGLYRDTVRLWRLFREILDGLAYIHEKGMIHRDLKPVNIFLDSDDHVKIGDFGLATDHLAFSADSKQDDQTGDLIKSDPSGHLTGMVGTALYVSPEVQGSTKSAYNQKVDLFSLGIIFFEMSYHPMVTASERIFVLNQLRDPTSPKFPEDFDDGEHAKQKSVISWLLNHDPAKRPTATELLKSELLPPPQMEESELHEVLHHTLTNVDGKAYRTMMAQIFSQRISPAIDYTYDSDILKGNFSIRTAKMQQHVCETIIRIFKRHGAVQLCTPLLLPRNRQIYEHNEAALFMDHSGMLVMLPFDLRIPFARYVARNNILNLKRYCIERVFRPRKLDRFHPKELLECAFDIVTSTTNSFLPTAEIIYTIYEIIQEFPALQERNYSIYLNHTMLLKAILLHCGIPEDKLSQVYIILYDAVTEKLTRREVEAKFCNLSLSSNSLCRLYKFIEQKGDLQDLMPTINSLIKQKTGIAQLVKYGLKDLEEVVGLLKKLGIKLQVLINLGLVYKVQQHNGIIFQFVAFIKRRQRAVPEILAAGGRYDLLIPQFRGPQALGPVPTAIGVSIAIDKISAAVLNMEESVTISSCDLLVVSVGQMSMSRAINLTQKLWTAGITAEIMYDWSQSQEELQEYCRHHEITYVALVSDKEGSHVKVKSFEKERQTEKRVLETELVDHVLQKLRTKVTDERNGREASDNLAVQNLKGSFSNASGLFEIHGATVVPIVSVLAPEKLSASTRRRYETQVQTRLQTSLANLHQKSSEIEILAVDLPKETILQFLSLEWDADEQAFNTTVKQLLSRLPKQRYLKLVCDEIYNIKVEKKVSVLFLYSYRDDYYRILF
Experimental: Compounds can be screened for their ability to inhibit intracellular GCN2 using an AlphaScreen assay (Perkin Elmer) to detect phosphorylation of the GCN2 substrate eIF2α in borrelidin-treated cells. U2OS cells are plated at 5,000 cells per well in 384-well white polystyrene plates (Corning 3570) in McCoy's 5A media (GIBCO 26600-023) supplemented with 10% foetal bovine serum (SAFC 12103C), Penicillin/Streptomycin solution diluted 1:100 (Sigma P0781), and 2 mM L-glutamine (Sigma G7513), and allowed to adhere overnight at 37° C. in 5% CO2. Compounds are then added to the cell media from a final concentration of 40 μM in 4-fold serial dilutions. Borrelidin (FluoroChem M01440) is immediately added to the wells to a final concentration of 10 μM and the cells are incubated for 1 h at 37° C. in 5% CO2. After 1 h of treatment with borrelidin, the media is removed, and the cells are lysed with lysis buffer (TGR BioSceinces TGRLB) at ambient temperature.
An AlphaScreen SureFire P-eIF2α (Ser51) assay kit (Perkin Elmer TGREIF2S) was used to measure levels of eIF2α phosphorylated on Serine 51. Anti-phosphorylated eIF2α Ser51 antibody-linked acceptor beads (TGR BioScience 6760617) are added to the cell homogenate (diluted 1:250 into a mixture of activation (TGR BioScience TGRAB) and reaction buffer (TGR BioScience TGREIF2S) prepared immediately before use). The plate is then incubated for 2 h at ambient temperature in the dark. Anti-eIF2α antibody-linked donor beads (TGR BioScience 6760617) were then added (diluted 1:100 in dilution buffer (TGR BioScience TGRDB) prepared immediately before use). The plate is then incubated overnight at ambient temperature in the dark.
Plates are analyzed on an Alpha Technology-compatible PHERAstar FS plate reader (BMG Labtech Version 1.14) to quantify phosphorylated eIF2α Ser51 levels. The percentage inhibition of phosphorylated eIF2α is calculated by comparison to control wells stimulated with borrelidin alone.

[2] = molecular target: GCN2 kinase (Homo sapiens (Human), UniProt Q9P2K8); assay: GCN2 Enzyme Inhibition Assay (Transcreener ADP2 fluorescence polarization); type: biochemical; conditions: 280 μM ATP, 200 μM (RS)7 peptide, 4 nM GCN2, 25° C.; for pKi: Ki(app)
GCN2 kinase, sequence (Q9P2K8 whole entry): as above
How it was run: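 At 25 °C, GCN2 kinase (typical final concentration 4 nM) and (RS)7 peptide in Tris-HCl pH 7.5 buffer with MgCl2, NaCl and DTT were preincubated with compound for 10 min, then ATP was added for a 1 h reaction. ADP was read by FP with antibody/Alexa633 tracer. Non-linear tight-binding analysis gave IC50 and apparent Ki.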

SMILES	pIC50 [1]	pIC50 [2]	pKi [2]
Cc1[nH]ncc1[C@H]1CN(c2nccc(-c3cnc4ccc(Cl)cn34)n2)C[C@H](C)O1 (stereo in doubt) [I-181, (2S,6S)-4-(4-(6-chloroimidazo[1,2-a]pyridin-3-yl)pyrimidin-2-yl)-2-methyl-6-(5-methyl-1H-pyrazol-4-yl)morpholine]	5.30 to 6.30	7.00 to 8.00	–
CS(=O)(=O)NC1CC(C(F)(F)F)CN(c2ccnc(-c3cnc4ccc(C(F)(F)F)cn34)n2)C1 (stereo not drawn) [I-478, N-(5-(trifluoromethyl)-1-(2-(6-(trifluoromethyl)imidazo[1,2-a]pyridin-3-yl)pyrimidin-4-yl)piperidin-3-yl)methanesulfonamide]	> 6.30	7.00 to 8.00	–
C[C@@H](NS(C)(=O)=O)[C@@H]1CN(c2ccnc(-c3cnc4ccc(C(F)(F)F)cn34)n2)CCO1 (stereo in doubt) [I-404, N—((R)-1-((S)-4-(2-(6-(trifluoromethyl)imidazo[1,2-a]pyridin-3-yl)pyrimidin-4-yl)morpholin-2-yl)ethyl)methanesulfonamide]	5.30 to 6.30	7.00 to 8.00	–
FC(F)(F)c1ccc2ncc(-c3nccc(N4CCN(C[C@@H]5CC56CCOCC6)[C@H](c5cn[nH]c5)C4)n3)n2c1 [I-520, 3-(4-((R)-4-(((R)-6-oxaspiro[2.5]octan-1-yl)methyl)-3-(1H-pyrazol-4-yl)piperazin-1-yl)pyrimidin-2-yl)-6-(trifluoromethyl)imidazo[1,2-a]pyridine]	> 6.30	7.00 to 8.00	–
C[C@@H]1[C@H]([C@@H](C)NS(C)(=O)=O)N(C2CC2)CCN1c1ccnc(-c2cnc3ccc(C(F)(F)F)cn23)n1 [I-505, N—((R)-1-((2R,3R)-1-cyclopropyl-3-methyl-4-(2-(6-(trifluoromethyl)imidazo[1,2-a]pyridin-3-yl)pyrimidin-4-yl)piperazin-2-yl)ethyl)methanesulfonamide]	< 5.30	6.00 to 7.00	–
CS(=O)(=O)NC1CC(C(F)(F)F)CN(c2nccc(-c3cnc4ccc(C(F)F)cn34)n2)C1 (stereo not drawn) [I-525, N-(1-(4-(6-(difluoromethyl)imidazo[1,2-a]pyridin-3-yl)pyrimidin-2-yl)-5-(trifluoromethyl)piperidin-3-yl)methanesulfonamide]	5.30 to 6.30	7.00 to 8.00	–
Cc1[nH]ncc1[C@@H]1CN(c2nccc(-c3cnc4ccc(Cl)cn34)n2)C[C@@H](C)O1 (stereo in doubt) [I-182, (2R,6R)-4-(4-(6-chloroimidazo[1,2-a]pyridin-3-yl)pyrimidin-2-yl)-2-methyl-6-(5-methyl-1H-pyrazol-4-yl)morpholine]	> 6.30	7.00 to 8.00	–
CC1CC(CS(C)(=N)=O)C(C)N(c2ccnc(-c3cnc4ccc(Cl)cn34)n2)C1 (stereo not drawn) [I-46, ((1-(2-(6-Chloroimidazo[1,2-a]pyridin-3-yl)pyrimidin-4-yl)-2,5-dimethylpiperidin-3-yl)methyl)(imino)(methyl)-λ^6-sulfanone]	5.30 to 6.30	–	7.00 to 8.00
C[C@@H]1C[C@H](N=S(C)(C)=O)CN(c2ccnc(-c3cnc4ccc(C#N)cn34)n2)C1 [I-262, 3-(4-((3S,5R)-3-((dimethyl(oxo)-λ6-sulfaneylidene)amino)-5-methylpiperidin-1-yl)pyrimidin-2-yl)imidazo[1,2-a]pyridine-6-carbonitrile]	< 5.30	7.00 to 8.00	–
CC1C(c2cn[nH]c2)N(C2COC2)CCN1c1ccnc(-c2cnc3ccc(C(F)(F)F)cn23)n1 (stereo not drawn) [I-322, 4-[2-methyl-4-(oxetan-3-yl)-3-(1H-pyrazol-4-yl)piperazin-1-yl]-2-[6-(trifluoromethyl)imidazo[1,2-a]pyridin-3-yl]pyrimidine]	> 6.30	7.00 to 8.00	–
CC(C)(C(=O)O)C1CCCN(c2ccnc(-c3cnc4ccc(Cl)cn34)n2)C1 (stereo not drawn) [I-284, 2-(1-(2-(6-chloroimidazo[1,2-a]pyridin-3-yl)pyrimidin-4-yl)piperidin-3-yl)-2-methylpropanoic acid]	< 5.30	7.00 to 8.00	–
C[C@H]1CN(c2ccnc(-c3cnc4ccc(C(F)(F)F)cn34)n2)[C@@H](C)[C@@H](c2cn[nH]c2)N1 (stereo in doubt) [I-37, 3-[4-[2,5-Dimethyl-3-(1H-pyrazol-4-yl)piperazin-1-yl]pyrimidin-2-yl]-6-(trifluoromethyl)imidazo[1,2-a]pyridine]	> 6.30	–	> 8.00
C[C@@H]1C[C@H](N=S(C)(C)=O)CN(c2ccnc(-c3cnc4ccc(C5CC5)cn34)n2)C1 [I-300, (((3 S,5R)-1-(2-(6-cyclopropylimidazo[1,2-a]pyridin-3-yl)pyrimidin-4-yl)-5-methylpiperidin-3-yl)imino)dimethyl-λ6-sulfanone]	5.30 to 6.30	7.00 to 8.00	–
Clc1ccc2ncc(-c3nccc(N4CCCC(c5c[nH]cn5)C4)n3)n2c1 (stereo not drawn) [I-55, 6-Chloro-3-{4-[3-(1H-imidazol-4-yl)-piperidin-1-yl]-pyrimidin-2-yl}-imidazo[1,2-a]pyridine]	5.30 to 6.30	–	7.00 to 8.00
O=C(C1CC(F)(F)C1)N1CCN(c2ccnc(-c3cnc4ccc(C(F)(F)F)cn34)n2)CC1c1cn[nH]c1 (stereo not drawn) [I-402, (2-(1H-pyrazol-4-yl)-4-(2-(6-(trifluoromethyl)imidazo[1,2-a]pyridin-3-yl)pyrimidin-4-yl)piperazin-1-yl)(3,3-difluorocyclobutyl)methanone]	5.30 to 6.30	6.00 to 7.00	–
FC(F)(F)c1ccc2ncc(-c3nsc(N4CCOC(c5cn[nH]c5)C4)n3)n2c1 (stereo not drawn) [I-104, 2-(1H-pyrazol-4-yl)-4-(3-(6-(trifluoromethyl)imidazo[1,2-a]pyridin-3-yl)-1,2,4-thiadiazol-5-yl)morpholine]	5.30 to 6.30	–	7.00 to 8.00
c1ccc(Oc2ccc3ncc(-c4nccc(N5CCC[C@H](c6cn[nH]c6)C5)n4)n3c2)cc1 [I-398, 2-{6-phenoxyimidazo[1,2-a]pyridin-3-yl}-4-[(3R)-3-(1H-pyrazol-4-yl)piperidin-1-yl]pyrimidine]	5.30 to 6.30	6.00 to 7.00	–
Clc1ccc2ncc(-c3nccc(N4CCC(c5cn[nH]c5)C4)n3)n2c1 (stereo not drawn) [I-27, 6-Chloro-3-[4-[3-(1H-pyrazol-4-yl)pyrrolidin-1-yl]pyrimidin-2-yl]imidazo[1,2-a]pyridine]	> 6.30	–	> 8.00
C[C@@H]1C[C@H](c2cn[nH]c2)CN(c2nccc(-c3cnc4ccc(Cl)cn34)n2)C1 [I-196, 6-chloro-3-(2-((3R,5R)-3-methyl-5-(1H-pyrazol-4-yl)piperidin-1-yl)pyrimidin-4-yl)imidazo[1,2-a]pyridine]	> 6.30	> 8.00	–
CS(=O)(=O)NC[C@@H]1CN(c2nsc(-c3cnc4ccc(C(F)(F)F)cn34)n2)CCO1 [I-109, (S)—N-((4-(5-(6-(trifluoromethyl)imidazo[1,2-a]pyridin-3-yl)-1,2,4-thiadiazol-3-yl)morpholin-2-yl)methyl)methanesulfonamide]	5.30 to 6.30	–	7.00 to 8.00
CC1CC(CS(C)(=N)=O)C(C)N(c2ccnc(-c3cnc4ccc(Cl)cn34)n2)C1 (stereo not drawn) [I-47, ((1-(2-(6-Chloroimidazo[1,2-a]pyridin-3-yl)pyrimidin-4-yl)-2,5-dimethylpiperidin-3-yl)methyl)(imino)(methyl)-λ^6-sulfanone]	5.30 to 6.30	–	> 8.00
FC(F)(F)c1ccc2ncc(-c3nccc(N4CCN(CC5C6COCC65)C(c5cn[nH]c5)C4)n3)n2c1 (stereo not drawn) [I-370, 3-(4-(4-((3-oxabicyclo[3.1.0]hexan-6-yl)methyl)-3-(1H-pyrazol-4-yl)piperazin-1-yl)pyrimidin-2-yl)-6-(trifluoromethyl)imidazo[1,2-a]pyridine]	> 6.30	> 8.00	–
CC(=O)N1[C@H](C)CN(c2ccnc(-c3cnc4ccc(C(F)(F)F)cn34)n2)C[C@@H]1C [I-414, 1-(cis-2,6-dimethyl-4-(2-(6-(trifluoromethyl)imidazo[1,2-a]pyridin-3-yl)pyrimidin-4-yl)piperazin-1-yl)ethan-1-one]	5.30 to 6.30	7.00 to 8.00	–
NC(=O)[C@H]1CCCN(c2ncc(F)c(-c3cnc4ccc(C(F)(F)F)cn34)n2)C1 [I-219, (S)-1-(5-fluoro-4-(6-(trifluoromethyl)imidazo[1,2-a]pyridin-3-yl)pyrimidin-2-yl)piperidine-3-carboxamide]	5.30 to 6.30	7.00 to 8.00	–
